Each block holds one molecule with its values, some of them ahead of it.
Test: Chemical stability: concentration / degradation of compound of Formula I in compositions on storage
[1] = SC composition at pH 4, Table 12

stability in oil dispersion (OD) composition compared with suspension concentrate (SC) composition: more stable
Structure (SMILES): Cc1ccc(S(=O)(=O)n2cc(F)c(=N)n(C)c2=O)cc1 [Form III, 5-fluoro-4-imino-3-methyl-1-tosyl-3,4-dihydropyrimidin-2(1H)-one]

% Water Content (total water in the composition, including free water and water in the hydrate): 0.29%
Structure (SMILES): Cc1ccc(S(=O)(=O)n2cc(F)c(=N)n(C)c2=O)cc1 [Hydrate I (45% Hydrate, and 55% Form I Polymorph)] [5-fluoro-4-imino-3-methyl-1-tosyl-3,4-dihydropyrimidin-2(1H)-one]

Structure (SMILES): Cc1ccc(S(=O)(=O)n2cc(F)c(=N)n(C)c2=O)cc1 [compound of Formula I, 5-fluoro-4-imino-3-methyl-1-tosyl-3,4-dihydropyrimidin-2(1H)-one]
amount of the compound of Formula I in the composition, after decrease [1]: 31.1 % by weight based on the total weight of the composition | amount of the compound of Formula I in the composition, before decrease [1]: 44.4 % by weight based on the total weight of the composition

Reference: patent US20240237649A1, “CRYSTALLINE FORMS OF 5-FLUORO-4-IMINO-3-METHYL-1-TOSYL-3,4-DIHYDROPYRIMIDIN-2-ONE, AND MIXTURES, COMPOSITIONS AND METHODS OF USE THEREOF” (Adama Makhteshim Ltd., priority 2021, published 2024)
